Laboratory results from US20210298306A1, “PESTICIDALLY ACTIVE AZOLE-AMIDE COMPOUNDS” (SYNGENTA PARTICIPATIONS AG, priority 2018, published 2021).

Tests used:
Type in all cases: in vivo
Spodoptera littoralis [1] = assay: Example B7: Spodoptera littoralis (Egyptian cotton leaf worm), cotton leaf discs sprayed, L1 larvae; conditions: foliar, 72 h, application rate 200 ppm, 3 days after infestation, read-out: control in at least one of the categories (mortality, anti-feedant effect, or growth inhibition)
Procedure: Example B7: Spodoptera littoralis (Egyptian Cotton Leaf Worm)
Cotton leaf discs were placed onto agar in 24-well microtiter plates and sprayed with aqueous test solutions prepared from 10,000 ppm DMSO stock solutions. After drying the leaf discs were infested with five L1 larvae. The samples were assessed for mortality, anti-feeding effect, and growth inhibition in comparison to untreated samples 3 days after infestation. Control of Spodoptera littoralis by a test sample is given when at least one of the categories mortality, anti-feedant effect, and growth inhibition is higher than the untreated sample.

Euschistus heros = assay: Example B2: Euschistus heros (neotropical brown stink bug), soybean leaves sprayed, N2 nymphs; conditions: 120 h, application rate 200 ppm, 5 days after infestation, read-out: effect in at least one of the two categories (mortality or growth inhibition)
Procedure: Example B2: Euschistus heros (Neotropical Brown Stink Bug)
Soybean leaves on agar in 24-well microtiter plates were sprayed with aqueous test solutions prepared from 10,000 ppm DMSO stock solutions. After drying the leaves were infested with N2 nymphs. The samples were assessed for mortality and growth inhibition in comparison to untreated samples 5 days after infestation.
(§1) The following compounds gave an effect of at least 80% in at least one of the two categories (mortality or growth inhibition) at an application rate of 200 ppm: […]

Plutella xylostella = assay: Example B4: Plutella xylostella (diamond back moth), artificial diet, 24-well, eggs; conditions: 192 h, application rate 200 ppm, 8 days after infestation, read-out: effect in at least one of the two categories (mortality or growth inhibition)
Procedure: Example B4: Plutella xylostella (Diamond Back Moth)
24-well microtiter plates with artificial diet were treated with aqueous test solutions prepared from 10,000 ppm DMSO stock solutions by pipetting. After drying, Plutella eggs were pipetted through a plastic stencil onto a gel blotting paper and the plate was closed with it. The samples were assessed for mortality and growth inhibition in comparison to untreated samples 8 days after infestation.
as §1

Diabrotica balteata = assay: Example B1: Diabrotica balteata (corn root worm), maize sprouts sprayed, L2 larvae; conditions: 96 h, application rate 200 ppm, 4 days after infestation, read-out: effect in at least one of the two categories (mortality or growth inhibition)
Procedure: Example B1: Diabrotica Balteata (Corn Root Worm)
Maize sprouts placed onto an agar layer in 24-well microtiter plates were treated with aqueous test solutions prepared from 10,000 ppm DMSO stock solutions by spraying. After drying, the plates were infested with L2 larvae (6 to 10 per well). The samples were assessed for mortality and growth inhibition in comparison to untreated samples 4 days after infestation.
as §1

Thrips tabaci = assay: Example B9: Thrips tabaci (onion thrips), feeding/contact activity, sunflower leaf discs; conditions: foliar, 144 h; application rate 200 ppm; 6 days after infestation; Thrips tabaci mixed ages
Procedure: Example B9: Thrips tabaci (Onion Thrips) Feeding/Contact Activity
Sunflower leaf discs were placed on agar in 24-well microtiter plates and sprayed with aqueous test solutions prepared from 10,000 ppm DMSO stock solutions. After drying the leaf discs were infested with a thrips population of mixed ages. The samples were assessed for mortality 6 days after infestation.

Myzus persicae [2] = assay: Example B6: Myzus persicae (green peach aphid), intrinsic activity, sucrose solution, 24-well; conditions: 120 h, test rate 12 ppm, 5 days after infestation
Text: Example B6: Myzus persicae (Green Peach Aphid). Intrinsic Activity
Test compounds prepared from 10,000 ppm DMSO stock solutions were applied by pipette into 24-well microtiter plates and mixed with sucrose solution. The plates were closed with a stretched Parafilm. A plastic stencil with 24 holes was placed onto the plate and infested pea seedlings were placed directly on the Parafilm. The infested plate was closed with a gel blotting paper and another plastic stencil and then turned upside down. The samples were assessed for mortality 5 days after infestation.

Spodoptera littoralis [3] = assay: Example B8: Spodoptera littoralis (Egyptian cotton leaf worm), uptake by lettuce roots from agar, eggs; conditions: 144 h, test rate 12.5 ppm, 6 days after infestation, lettuce root uptake, read-out: effect in at least one of the three categories (mortality, anti-feeding, or growth inhibition)
Text: Example B8: Spodoptera littoralis (Egyptian Cotton Leaf Worm)
Test compounds were applied by pipette from 10,000 ppm DMSO stock solutions into 24-well plates and mixed with agar. Lettuce seeds were placed onto the agar and the multi well plate was closed by another plate which contained also agar. After 7 days the compound was absorbed by the roots and the lettuce grew into the lid plate. The lettuce leaves were then cut off into the lid plate. Spodoptera eggs were pipetted through a plastic stencil onto a humid gel blotting paper and the lid plate was closed with it. The samples were assessed for mortality, anti-feedant effect and growth inhibition in comparison to untreated samples 6 days after infestation.
The following compounds gave an effect of at least 80% in at least one of the three categories (mortality, anti-feeding, or growth inhibition) at a test rate of 12.5 ppm: […]

Myzus persicae [4] = assay: Example B5: Myzus persicae (green peach aphid), feeding/contact activity, sunflower leaf discs; conditions: foliar, 144 h, application rate 200 ppm, 6 days after infestation, Myzus persicae mixed ages
Procedure: Example B5: Myzus persicae (Green Peach Aphid):Feeding/Contact Activity
Sunflower leaf discs were placed onto agar in a 24-well microtiter plate and sprayed with aqueous test solutions prepared from 10,000 ppm DMSO stock solutions. After drying, the leaf discs were infested with an aphid population of mixed ages. The samples were assessed for mortality 6 days after infestation.

CC(c1ncnn1-c1ncccn1)N(CC1CC1)C(=O)c1cc(C(F)F)cc(C(F)(F)F)c1 (stereo not drawn) [P1, N-(cyclopropylmethyl)-3-(difluoromethyl)-N-[1-(2-pyrimidin-2-yl-1,2,4-triazol-3-yl)ethyl]-5-(trifluoromethyl) benzamide]
≥ 80%: percent control (mortality, anti-feedant effect or growth inhibition) at 200 ppm (Spodoptera littoralis [1]) | percent effect (mortality or growth inhibition) at 200 ppm (Euschistus heros) | percent effect (mortality or growth inhibition) at 200 ppm (Plutella xylostella) | percent effect (mortality or growth inhibition) at 200 ppm (Diabrotica balteata) | mortality at 200 ppm (Thrips tabaci) | mortality at 12 ppm (Myzus persicae [2])

CC(c1ncnn1-c1ncccn1)N(CC1CC1)C(=O)c1cc(OC(F)(F)C(F)F)cc(C(F)(F)F)c1 (stereo not drawn) [P3, N-(cyclopropylmethyl)-N-[1-(2-pyrimidin-2-yl-1,2,4-triazol-3-yl)ethyl]-3-(1,1,2,2-tetrafluoroethoxy)-5-(trifluoromethyl)benzamide]
≥ 80%: percent effect (mortality, anti-feeding or growth inhibition) at 12.5 ppm (Spodoptera littoralis [3]) | percent control (mortality, anti-feedant effect or growth inhibition) at 200 ppm (Spodoptera littoralis [1]) | percent effect (mortality or growth inhibition) at 200 ppm (Euschistus heros) | percent effect (mortality or growth inhibition) at 200 ppm (Plutella xylostella) | percent effect (mortality or growth inhibition) at 200 ppm (Diabrotica balteata) | mortality at 200 ppm (Thrips tabaci) | mortality at 12 ppm (Myzus persicae [2])

CC(NC(=O)c1cc(SCC(F)(F)F)cc(C(F)(F)F)c1)c1ncnn1-c1ncccn1 (stereo not drawn) [P6, N-[1-(2-pyrimidin-2-yl-1,2,4-triazol-3-yl)ethyl]-3-(2,2,2-trifluoroethylsulfanyl)-5-(trifluoromethyl) benzamide]
≥ 80%: percent control (mortality, anti-feedant effect or growth inhibition) at 200 ppm (Spodoptera littoralis [1]) | percent effect (mortality or growth inhibition) at 200 ppm (Plutella xylostella) | percent effect (mortality or growth inhibition) at 200 ppm (Diabrotica balteata)

CC(NC(=O)c1cc(OCC(F)(F)F)cc(C(F)(F)F)c1)c1ncnn1-c1ncccn1 (stereo not drawn) [P7, N-[1-(2-pyrimidin-2-yl-1,2,4-triazol-3-yl)ethyl]-3-(2,2,2-trifluoroethoxy)-5-(trifluoromethyl) benzamide]
≥ 80%: percent control (mortality, anti-feedant effect or growth inhibition) at 200 ppm (Spodoptera littoralis [1]) | percent effect (mortality or growth inhibition) at 200 ppm (Euschistus heros) | percent effect (mortality or growth inhibition) at 200 ppm (Plutella xylostella) | percent effect (mortality or growth inhibition) at 200 ppm (Diabrotica balteata) | mortality at 200 ppm (Myzus persicae [4]) | mortality at 12 ppm (Myzus persicae [2])

CC(NC(=O)c1cc(SCC(F)(F)F)cc(C(F)(F)F)c1)c1ncnn1-c1ccccn1 (stereo not drawn) [P9, N-[1-[2-(2-pyridyl)-1,2,4-triazol-3-yl]ethyl]-3-(2,2,2-trifluoroethylsulfanyl)-5-(trifluoromethyl) benzamide]
≥ 80%: percent effect (mortality or growth inhibition) at 200 ppm (Plutella xylostella) | percent effect (mortality or growth inhibition) at 200 ppm (Diabrotica balteata)

CC(NC(=O)c1cc(OCC(F)(F)F)cc(C(F)(F)F)c1)c1ncnn1-c1ccccn1 (stereo not drawn) [P10, N-[1-[2-(2-pyridyl)-1,2,4-triazol-3-yl]ethyl]-3-(2,2,2-trifluoroethoxy)-5-(trifluoromethyl) benzamide]
≥ 80%: percent control (mortality, anti-feedant effect or growth inhibition) at 200 ppm (Spodoptera littoralis [1]) | percent effect (mortality or growth inhibition) at 200 ppm (Euschistus heros) | percent effect (mortality or growth inhibition) at 200 ppm (Plutella xylostella) | percent effect (mortality or growth inhibition) at 200 ppm (Diabrotica balteata)

CC(NC(=O)c1cc(OC(F)F)cc(C(F)(F)F)c1)c1ncnn1-c1ccccn1 (stereo not drawn) [P11, 3-(difluoromethoxy)-N-[1-[2-(2-pyridyl)-1,2,4-triazol-3-yl]ethyl]-5-(trifluoromethyl) benzamide]
≥ 80%: percent effect (mortality, anti-feeding or growth inhibition) at 12.5 ppm (Spodoptera littoralis [3]) | percent control (mortality, anti-feedant effect or growth inhibition) at 200 ppm (Spodoptera littoralis [1]) | percent effect (mortality or growth inhibition) at 200 ppm (Plutella xylostella) | percent effect (mortality or growth inhibition) at 200 ppm (Diabrotica balteata)

CC(NC(=O)c1cc(OC(F)F)cc(C(F)(F)F)c1)c1ncnn1-c1ncccc1F (stereo not drawn) [P12, 3-(difluoromethoxy)-N-[1-[2-(3-fluoro-2-pyridyl)-1,2,4-triazol-3-yl]ethyl]-5-(trifluoromethyl) benzamide]
≥ 80%: percent control (mortality, anti-feedant effect or growth inhibition) at 200 ppm (Spodoptera littoralis [1]) | percent effect (mortality or growth inhibition) at 200 ppm (Euschistus heros) | percent effect (mortality or growth inhibition) at 200 ppm (Plutella xylostella) | percent effect (mortality or growth inhibition) at 200 ppm (Diabrotica balteata)

CC(NC(=O)c1cc(SCC(F)(F)F)cc(C(F)(F)F)c1)c1ncnn1-c1ncccc1F (stereo not drawn) [P13, N-[1-[2-(3-fluoro-2-pyridyl)-1,2,4-triazol-3-yl]ethyl]-3-(2,2,2-trifluoroethylsulfanyl)-5-(trifluoromethyl) benzamide]
≥ 80%: percent effect (mortality or growth inhibition) at 200 ppm (Diabrotica balteata)

CC(NC(=O)c1cc(OC(F)F)cc(C(F)(F)F)c1)c1ncnn1-c1ccc(F)cn1 (stereo not drawn) [P15, 3-(difluoromethoxy)-N-[1-[2-(5-fluoro-2-pyridyl)-1,2,4-triazol-3-yl]ethyl]-5-(trifluoromethyl) benzamide]
≥ 80%: percent effect (mortality, anti-feeding or growth inhibition) at 12.5 ppm (Spodoptera littoralis [3]) | percent control (mortality, anti-feedant effect or growth inhibition) at 200 ppm (Spodoptera littoralis [1]) | percent effect (mortality or growth inhibition) at 200 ppm (Euschistus heros) | percent effect (mortality or growth inhibition) at 200 ppm (Plutella xylostella) | percent effect (mortality or growth inhibition) at 200 ppm (Diabrotica balteata) | mortality at 12 ppm (Myzus persicae [2])

CC(NC(=O)c1cc(SCC(F)(F)F)cc(C(F)(F)F)c1)c1ncnn1-c1ccc(F)cn1 (stereo not drawn) [P16, N-[1-[2-(5-fluoro-2-pyridyl)-1,2,4-triazol-3-yl]ethyl]-3-(2,2,2-trifluoroethylsulfanyl)-(trifluoromethyl) benzamide]
≥ 80%: percent control (mortality, anti-feedant effect or growth inhibition) at 200 ppm (Spodoptera littoralis [1]) | percent effect (mortality or growth inhibition) at 200 ppm (Plutella xylostella) | percent effect (mortality or growth inhibition) at 200 ppm (Diabrotica balteata)

CC(NC(=O)c1cc(OCC(F)(F)F)cc(C(F)(F)F)c1)c1ncnn1-c1ccc(F)cn1 (stereo not drawn) [P17, N-[1-[2-(5-fluoro-2-pyridyl)-1,2,4-triazol-3-yl]ethyl]-3-(2,2,2-trifluoroethoxy)-5-(trifluoromethyl) benzamide]
≥ 80%: percent control (mortality, anti-feedant effect or growth inhibition) at 200 ppm (Spodoptera littoralis [1]) | percent effect (mortality or growth inhibition) at 200 ppm (Euschistus heros) | percent effect (mortality or growth inhibition) at 200 ppm (Plutella xylostella) | percent effect (mortality or growth inhibition) at 200 ppm (Diabrotica balteata)

CC(NC(=O)c1cncc(OC(F)F)c1)c1ncnn1-c1ncccc1F (stereo not drawn) [P22, 5-(difluoromethoxy)-N-[1-[2-(3-fluoro-2-pyridyl)-1,2,4-triazol-3-yl]ethyl]pyridine-3-carboxamide]
≥ 80%: percent effect (mortality or growth inhibition) at 200 ppm (Plutella xylostella)

CC(NC(=O)c1cncc(OC(F)F)c1)c1ncnn1-c1ncccn1 (stereo not drawn) [P24, 5-(difluoromethoxy)-N-[1-(2-pyrimidin-2-yl-1,2,4-triazol-3-yl)ethyl]pyridine-3-carboxamide]
≥ 80%: percent effect (mortality or growth inhibition) at 200 ppm (Euschistus heros) | percent effect (mortality or growth inhibition) at 200 ppm (Diabrotica balteata) | mortality at 200 ppm (Myzus persicae [4])
